Data as given in patent US8436021B2, “Pharmaceutical composition for treating and/or preventing a pathology associated with an obsessional behavior or with obesity” (priority 2002, dated 2013).

Columns and labels:
Format in all cases: in vivo, mouse
[1] = test system: 5-HT4 receptor; test: Ingestion of food after 24 h food deprivation and i.p. drug injection (protocol of Lucas et al., 1998); conditions: for diminution of ingestion of food vs NaCl-treated mice of same genotype / effect on ingestion of food vs NaCl-treated mice of same genotype: MDMA 10 mg/kg, RS 39604 0.5 mg/kg i.p.; for effect on ingestion of food vs NaCl-treated mice of same genotype: 3 h after administration
Description: Each drug used to treat the wild mice disabled for the gene coding for the 5-HT4 receptor was diluted extemporaneously in a saline solution of NaCl (0.9%) and injected in a systemic manner (i.p.). The injection volume of each treatment was 200 μL for 30 g. The wild mice or those disabled for the 5-HT4 receptor (n=35) received the following treatments: NaCl, MDMA (or ecstasy or 3,4-N-methylene dioxymethamphetamine, SIGMA, 10 mg/kg), RS 39604, […]/MDMA.
(§1) The MDMA (10 mg/kg, Sigma, user license 9900431 S, V. Compan) and RS 39604 (0.5 mg/kg), antagonist of the 5-HT4 receptor, were administered by themselves or in a combined treatment to the wild mice or those deprived of the 5-HT4 receptor (n=12-17 by genotype and pharmacological products).
Ingestion of food by the wild mice and the mice disabled for the gene coding for the 5-HT4 receptor was evaluated in accordance with the test protocol described by Lucas et al., 1998. The different mice were isolated for a habituation period of three days in the presence of food and water supplied ad libitum during which the weights of the mice and of the food consumed were measured daily at the same hour. On the fourth day the mice were deprived of their food for 24 hours. The drugs were injected such as NaCl after the food deprivation period to determine the effect of the different treatments on ingestion of food. Food was reintroduced into each cage after an interval of 10 min for the other treatments. Three successive weighings of the food were then carried out 30 min, 1 h and 3 h after the reintroduction of the food.

[2] = test system: leptine; test: Plasma leptine rates after administration of NaCl or MDMA; conditions: single administration MDMA 10 mg/kg, wild or mutant mice; p=0.95
Description: The data represents the average±the standard deviation from the average of the leptine rates of the plasma expressed in ng/mL after the administration of NaCl (0.9%) or of MDMA (10 mg/kg) in the wild (+/+) or the disabled (−/−) mice for the gene coding for the 5-HT4 receptor, aged six to 10 months on the average. **p<0.01 significant effect of the genotype after a variance analysis (ANOVA) followed by an F test of Scheffé.

[3] = test system: 5-HT4 receptor; test: Constraint stress (forced immobilization 110 min): ingestion of food and weight; conditions: RS 39604 1 mg/kg, not shown
Description: Each of the tests was divided into three phases: A period of habituation (7 days), the day of the constraint stress (immobilization for 110 min) and a recovery stage (10 days). The mice were divided into a control group and a constraint group. On the stress day the wild mice disabled for the gene coding for the 5-HT4 receptor received an injection of NaCl […], 1 mg/kg of RS 39604, antagonist of the 5-HT4 receptor. […] Ingestion of food was then measured 2 h 30 min, 3 and 5 h and each day during the recovery period.

[4] = test system: 5-HT4 receptor; test: Taking of food in mice nourished ad libitum (dose selection for RS 39604); conditions: 0.5 mg/kg, not illustrated
Description: as §1

| SMILES | diminution of ingestion of food vs NaCl-treated mice of same genotype ([1]; mice lacking the 5-HT4 receptor (−/−), 30 min after administration) | diminution of ingestion of food vs NaCl-treated mice of same genotype ([1]; mice lacking the 5-HT4 receptor (−/−), 1 h after administration) | effect on ingestion of food vs NaCl-treated mice of same genotype ([1]; mice lacking the 5-HT4 receptor (−/−)) | diminution of ingestion of food vs NaCl-treated mice of same genotype ([1]; wild mice (+/+), 30 min after administration, 24 h food deprivation) | diminution of ingestion of food vs NaCl-treated mice of same genotype ([1]; wild mice (+/+), 1 h after administration, 24 h food deprivation) | effect on ingestion of food vs NaCl-treated mice of same genotype ([1]; wild mice (+/+), 24 h food deprivation) | rates of leptine in plasma [2] | effect of treatment alone on ingestion of food (statistical analysis of genotype, treatment, interaction) ([1]; RS 39604 0.5 mg/kg i.p. alone, wild and mutant mice, 24 h food deprivation) | ingestion of food after constraint stress preceded by injection ([3]; wild female mice) | weight losses after constraint stress vs NaCl-treated animals ([3]; wild mice) | taking of food vs mice treated with NaCl or other dosages ([4]; mutant animals for the 5-HT4 receptors) | taking of food vs mice treated with NaCl or other dosages ([4]; nourished wild mice ad libitum) |
| --- | --- | --- | --- | --- | --- | --- | --- | --- | --- | --- | --- | --- |
| CNC(C)Cc1ccc2c(c1)OCO2 (stereo not drawn) [MDMA, 3,4-N-methylene dioxymethamphetamine] | −69.07% | −68.49% | no longer observed | −95.38% | −88.56% | absent | does not modify the rates of leptine |  |  |  |  |  |
| COc1cc(COc2cc(N)c(Cl)cc2C(=O)CCC2CCN(CCNS(C)(=O)=O)CC2)cc(OC)c1 [RS 39604] |  |  |  |  |  |  |  | does not reveal significant | not modified | reduced the weight losses | without effect | increase of the taking of food |
